Assay results reported in patent US9381196B2, “Compounds, pharmaceutical compositions and methods of use of hydroxamic acid derivatives” (THE TRANSLATIONAL GENOMICS RESEARCH INSTITUTE, priority 2008, dated 2016).
pIC50: −log10 of the molar value. Where two headings read alike, the source gives them in different places.

Assays:
Skov-3 cells = experiment: CellTiter-Blue cell viability assay, SKOV3 cell line; format: cell-based; conditions: cell growth inhibition
Excerpt: Cell viability in the presence of varying concentrations of the above listed aspects of the disclosed compound at different time points was used to assess cytotoxicity and the effect of the disclosed compound on cell proliferation.

mdamb231 cells = experiment: CellTiter-Blue cell viability assay, mdamb231 cell line; format: cell-based; conditions: cell growth inhibition
Excerpt: (§6) Where X is the logarithm of concentration and Y is the response. Y starts at the Bottom and goes to Top with a sigmoid shape.

MiaPaca cells = experiment: CellTiter-Blue cell viability assay, MiaPaCa cell line; format: cell-based, human; conditions: cell growth inhibition
Excerpt: as §6

A2780 cell line = conditions: 72 hours treatment
Experimental: (§1) Cell viability was measured by the CellTiter-Blue® cell viability assay Promega (Madison, Wis.). This procedure measures the conversion of the indicator dye (resazurin) to resorufin, an indicator of cell viability. Following treatment, growth media was removed and cells were incubated with 20 μl of CellTiter-Blue® Reagent and growth media for 1-4 hours at 37° C. Fluorescence values were measured at 535/590 nm using a Beckman-Coulter DTX-880 microplate reader.
(§2) Cells were grown to 70% confluency, trypsinized, counted, and seeded in 96 well flat-bottom plates at a final concentration of 2.5×10^3-5×10^3 cells/well (Day 0). Cells were allowed to incubate in growth media for 24 hours to allow for maximum adhesion. Treatment with the test agents or standard agents began on Day 1 and continued for 72 hours. At the 72 hour timepoint, treatment including media was removed. Viable cell numbers are quantified by the CellTiter-Blue® cell viability assay as described above. Experiments were repeated at least twice with the same concentrations to determine growth inhibitory activity.
(§3) Single agent and combination studies, data from each experiment was collected and expressed as % Cell Growth using the following calculation: % Cell Growth=(ftest/fvehicle)×100
(§4) Where ftest is the fluorescence of the tested sample, and fvehicle is the fluorescence of the vehicle in which the drug is dissolved. Dose response graphs and IC50 values were generated using Prism 4 software (GraphPad) using the following equation: […]
(§5) Where X is the logarithm of concentration and Y is the response.

H23 cell line = conditions: 72 hours treatment
Experimental: as §1, §2, §3, §4, §5

H295R cell line = conditions: 72 hours treatment
Experimental: as §1, §2, §3, §4, §5

MV522 cell line = conditions: 72 hours treatment
Experimental: as §1, §2, §3, §4, §5

PANC-1 cell line = conditions: 72 hours treatment
Experimental: as §1, §2, §3, §4, §5

VCAP cell line = conditions: 72 hours treatment
Experimental: as §1, §2, §3, §4, §5

[1] = system: MIA PaCa-2 human pancreas cells xenograft; conditions: MIA PaCa-2 xenograft in nude mice
Experimental: In vivo efficacy of the disclosed compound was tested through a human pancreas tumor xenograft model. Female Ncr nude mice were inoculated with 1×10^7 MIA PaCa-2 human pancreas cells suspended in a mixture of 50% Matrigel and 50% tissue culture media in a total volume of […] When the tumors reached a mean weight of 157 mg, the mice were separated into four groups of 7-8 mice per group and treated. One group was treated with vehicle only. A second group was treated with Compound ID #15 at 50 mg/kg. A third group was treated with Compound ID #15 at 100 mg/kg and a fourth group was treated with Gemcitabine at 80 mg/kg. Vehicle and Compound ID #15 were administered by mouth while Gemcitabine was administered via an intraperitoneal injection. Body weights and tumor size data were collected twice weekly. Tumor width and length were measured in millimeters and converted to tumor weight (in milligrams) using the formula (width^2×Length/2)=tumor weight (mg.)

[2] = Homo sapiens, SK-OV-3, 72 hours treatment
[3] = Homo sapiens, MDA-MB-231, 72 hours treatment
[4] = Homo sapiens, MIA PaCa-2, 72 hours treatment

## O=C(CCCCCc1nc2ccccc2[nH]1)NO [Compound ID 16, 6-(1H-benzo[d]imidazol-2-yl)-N-hydroxyhexanamide]
Skov-3 cells; [2]
  pIC50: 4.96

## COc1ccc2[nH]c(CCCCCCC(=O)NO)nc2c1 [Compound ID 17, N-hydroxy-7-(5-methoxy-1H-benzo[d]imidazol-2-yl)heptanamide]
Skov-3 cells; [2]
  pIC50: < 5.00

## O=C(CCCCCCc1nc2cc(-c3cncnc3)ccc2[nH]1)NO [Compound ID 28, N-hydroxy-7-(5-(pyrimidin-5-yl)-1H-benzo[d]imidazol-2-yl)heptanamide]
Skov-3 cells; [2]
  pIC50: 5.59
mdamb231 cells; [3]
  pIC50: 6.27

## CN(C)c1ccc2[nH]c(CCCCCCC(=O)NO)nc2c1 [Compound ID 20, 7-(5-(dimethylamino)-1H-benzo[d]imidazol-2-yl)-N-hydroxyheptanamide]
Skov-3 cells; [2]
  pIC50: 5.92

## CN(C)c1ccc(-c2ccc3[nH]c(CCCCCCC(=O)NO)nc3c2)cc1 [Compound ID 31, 7-(5-(4-(dimethylamino)phenyl)-1H-benzo[d]imidazol-2-yl)-N-hydroxyheptanamide]
Skov-3 cells; [2]
  pIC50: 5.18

## O=C(CCCCCCc1nc2cc(-c3cccc(F)c3)ccc2[nH]1)NO [Compound ID 30, 7-(5-(3-fluorophenyl)-1H-benzo[d]imidazol-2-yl)-N-hydroxyheptanamide]
Skov-3 cells; [2]
  pIC50: 5.82
mdamb231 cells; [3]
  pIC50: 6.48

## O=C(CCCCCCc1nc2cc(F)ccc2[nH]1)NO [Compound ID 21, 7-(5-fluoro-1H-benzo[d]imidazol-2-yl)-N-hydroxyheptanamide]
Skov-3 cells; [2]
  pIC50: 5.72

## O=C(CCCCCCc1nc2c(Cl)cccc2[nH]1)NO [Compound ID 26, 7-(4-chloro-1H-benzo[d]imidazol-2-yl)-N-hydroxyheptanamide]
Skov-3 cells; [2]
  pIC50: 4.99
MiaPaca cells; [4]
  pIC50: 5.07

## 7-(5-bromo-1H-benzimidazol-2-yl)-N-hydroxy heptanamide [Compound ID 15]
Skov-3 cells; 72 hours treatment
  pIC50: 6.57
MiaPaca cells; 72 hours treatment
  pIC50: 6.09
mdamb231 cells; 72 hours treatment
  pIC50: 6.05
A2780 cell line
  pIC50: 5.72
H23 cell line
  pIC50: 6.25
H295R cell line
  pIC50: 6.74
MV522 cell line
  pIC50: 5.66
PANC-1 cell line
  pIC50: 6.89
VCAP cell line
  pIC50: 5.62
[1]; 50 mg/kg by mouth
  slowing growth of the xenografts: no more effective than the vehicle control
[1]; 100 mg/kg by mouth, comparator gemcitabine 80 mg/kg intraperitoneal
  slowing growth of the xenografts: about as effective as gemcitabine

## COc1ccc(-c2ccc3[nH]c(CCCCCCC(=O)NO)nc3c2)cc1 [Compound ID 33, N-hydroxy-7-(5-(4-methoxyphenyl)-1H-benzo[d]imidazol-2-yl)heptanamide]
Skov-3 cells; [2]
  pIC50: 5.49

## O=C(CCCCCCc1nc2cc(Cl)ccc2[nH]1)NO [Compound ID 22, 7-(5-chloro-1H-benzo[d]imidazol-2-yl)-N-hydroxyheptanamide]
Skov-3 cells; [2]
  pIC50: 6.49

## O=C(CCCCCCc1nc2ccccc2n1-c1ccccc1)NO [Compound ID 27, N-hydroxy-7-(1-phenyl-1H-benzo[d]imidazol-2-yl)heptanamide]
Skov-3 cells; [2]
  pIC50: < 5.00
MiaPaca cells; [4]
  pIC50: < 5.00

## Cn1c(CCCCCCC(=O)NO)nc2ccccc21 [Compound ID 19, N-hydroxy-7-(1-methyl-1H-benzo[d]imidazol-2-yl) heptanamide]
Skov-3 cells; 72 hours treatment
  pIC50: 5.52

## O=C(CCCCCCc1nc2ccccc2[nH]1)NO [Compound ID 14, 7-(1H-benzo[d]imidazol-2-yl)-N-hydroxyheptanamide]
Skov-3 cells; [2]
  pIC50: 5.57
MiaPaca cells; [4]
  pIC50: 5.72

## O=C(CCCCCCc1nc2ccccc2n1C1CCCC1)NO [Compound ID 25, 7-(1-cyclopentyl-1H-benzo[d]imidazol-2-yl)-N-hydroxyheptanamide]
Skov-3 cells; [2]
  pIC50: 5.32
MiaPaca cells; [4]
  pIC50: 5.64

## O=C(CCCCCCc1nc2cc(-c3ccccc3F)ccc2[nH]1)NO [Compound ID 32, 7-(5-(2-fluorophenyl)-1H-benzo[d]imidazol-2-yl)-N-hydroxyheptanamide]
Skov-3 cells; [2]
  pIC50: 5.13

## O=C(CCCCCCc1nc2ccccc2n1C1CC1)NO [Compound ID 24, 7-(1-cyclopropyl-1H-benzo[d]imidazol-2-yl)-N-hydroxyheptanamide]
Skov-3 cells; [2]
  pIC50: 5.02
MiaPaca cells; [4]
  pIC50: 5.40

## O=C(CCCCCCc1nc2cc(-c3ccccc3)ccc2[nH]1)NO [Compound ID 18, N-hydroxy-7-(5-phenyl-1H-benzo[d]imidazol-2-yl)heptanamide]
Skov-3 cells; [2]
  pIC50: 7.01
MiaPaca cells; [4]
  pIC50: 6.40

## O=C(CCCCCCc1nc2cc(-c3ccc(F)cc3)ccc2[nH]1)NO [Compound ID 29, 7-(5-(4-fluorophenyl)-1H-benzo[d]imidazol-2-yl)-N-hydroxyheptanamide]
Skov-3 cells; [2]
  pIC50: 5.92
mdamb231 cells; [3]
  pIC50: 6.68

## O=C(CCCCCCc1nc2ccncc2[nH]1)NO [Compound ID 23, N-hydroxy-7-(3H-imidazo[4,5-c]pyridin-2-yl)heptanamide]
Skov-3 cells; [2]
  pIC50: < 5.00
MiaPaca cells; [4]
  pIC50: < 5.00
